Measurements published in patent publication US11813277B2, “Methods and agents for modulating inflammation” (The Regents of the University of California, priority 2018, dated 2023).

How the values were obtained:
[1] = system: M(IL-4) polarization of BMDMs; test: Flow cytometry of IL-4-associated cell surface markers in BMDMs; format: cell-based, mouse; conditions: for number of cells positive for both CD206 and CD71: IL-4; for population of CD206+/CD71+ cells: oxidative phosphorylation inhibitors co-treated with IL-4
Protocol: (§1) For all gene expression and flow cytometry experiments described below, day 6 BMDM were plated at 3×10^5 cell/well in 12-well plates. The next day, cells were treated with appropriate compounds (and duration as indicated in figures and below) in DMEM supplemented with 5% FBS, 2 mM L-glutamine, 100 units/mL, 100 μg/mL penicillin/streptomycin, 500 μM of sodium pyruvate and 5% v/v conditioned media containing macrophage colony stimulating factor (M-CSF).
(§2) For flow cytometry experiments involving etomoxir (FIG. 1G, FIG. 2A, FIG. 2D, FIG. 3A, FIG. 3B, FIG. 3G, FIG. 3H): BMDMs were mock-treated (media replacement only) or treated with 20 ng/mL of IL-4±3 μM or 200 μM of etomoxir for 48 hr. When measuring expression of M(IL-4)-associated genes in response to etomoxir (FIG. 1H, FIG. 2B), BMDMs were mock-treated or treated with 20 ng/mL of IL4±etomoxir as indicated for 24 hr.
(§3) For experiments involving respiratory chain inhibitors: BMDMs were mock-treated (media replacement only) or treated with 20 ng/mL of IL4±1.2 μM oligomycin (Oligo), 200 nM rotenone (Rot), 200 nM antimycin A (AntiA), 100 nM piericidin A (PierA), or 5 μM carboxyatractylate (CAT) for either 24 (FIG. 4G, FIG. 4H, FIG. 6G) or 48 hr (FIG. 4F, FIG. 7D). All inhibitors were given as co-treatments simultaneously with IL-4.
For experiments involving CoA supplementation (FIG. 10A, FIG. 10B, FIG. 10C, FIG. 10D, FIG. 10E, FIG. 9C, FIG. 9D): BMDMs were mock-treated (media replacement only) or treated with 20 ng/mL of IL4±etomoxir (concentration indicated in figures)±CoA (concentration indicated in figures) for 48 hr. Etomoxir and CoA were given as co-treatments simultaneously with IL-4.
Prior to FACS analysis, BMDMs were detached using 350 μL of Accutase, followed by two washes with FACS buffer (PBS+1% (v/v) BSA+0.05% (w/v) sodium azide). Anti-mouse CD16/32 antibody was used at a dilution of 1:500, while all other antibodies were used at a dilution of 1:250. All flow cytometry data were captured using BD FACSVerse flow cytometer and analyzed using the FlowJo X 10.0.7r2 software. In all, 2×104 live events were acquired for each sample (gated on DAPIneg). For analysis, CD206+/CD71+ and CD206+/CD301+ populations were gated based on Fluorescence Minus One (FMO) controls.

[2] = system: Relma, Mgl2, Ym1, Fabp4, Arg1 expression; test: qPCR of IL-4-associated genes in BMDMs; format: cell-based, mouse; conditions: for IL-4-induced expression of Relma, Ym1, Mgl2: electron transport chain inhibitors
Protocol: as §1, §2, §3
RNA was isolated with TRIzol, then cDNA was synthesized with high-capacity cDNA reverse transcription kit. KAPA SYBR FAST qPCR Master Mix kit and a LightCycler 480 were used for quantitative RT-PCR. Fold change related to the control group was calculated using […] with 36b4 as the reference gene.

[3] = system: BMDMs; test: Basal mitochondrial respiration in intact BMDMs; format: cell-based, mouse; conditions: 1.2 μM oligomycin, 200 nM rotenone, 200 nM antimycin A, 100 nM piericidin A, 5 μM CAT
Protocol: All respirometry studies were conducted in either a Seahorse XF96 or XFe96 Analyzer. All experiments were conducted at 37° C., and at pH 7.4 (intact cells) or 7.2 (permeabilized cells and isolated mitochondria). Calculation of respiratory parameters was made according to standard protocols (Divakaruni, A. S., Paradyse, A., Ferrick, D. A., Murphy, A. N., and Jastroch, M. (2014a) Analysis and interpretation of microplate-based oxygen consumption and pH data. Meth. Enzym 547, 509-54), and all rates were corrected for non-mitochondrial respiration/background signal by subtracting the oxygen consumption rate insensitive to rotenone plus antimycin A.
Respiration in intact BMDMs was measured in medium containing 8 mM glucose, 2 mM glutamine, 2 mM pyruvate, and 5 mM HEPES. Cells were plated at 5.0×10^4 cells/well and assayed after 48 hr. When measuring the response to IL-4, cells were treated with 20 ng/mL of IL-4 24 hr. after initial plating, and respiration was measured the following day (˜48 hr after initial seeding). […]

[4] = system: adenine nucleotide translocase (ANT); test: ATP hydrolysis in isolated mitochondria, intact or alamethicin-permeabilized; format: biochemical, rat
From the text: ATP hydrolysis in isolated mitochondria (McQuaker, S. J., Quinlan, C. L., Caldwell, S. T., Brand, M. D., and Hartley, R. C. (2013). A prototypical small molecule modulator uncouples mitochondria in response to endogenous hydrogen peroxide production. Chembiochem. 14, 993-1000; Divakaruni, A. S., Andreyev, A. Y., Rogers, G. W., and Murphy, A. N. (2017a) In situ measurements of mitochondrial matrix enzyme activities using plasma and mitochondrial membrane permeabilization agents. Anal. Biochem. 17, 30385-8) was performed in MAS buffer, and stimulated by respiratory chain inhibition (1 μM rotenone and 2 μM antimycin A) followed by addition of excess ATP (25 mM) and uncoupler (1 μM FCCP). Hydrolysis was inhibited by injection of either oligomycin (3 ng/mg mitochondrial protein) or carboxyatractylo side (7.5 ng/mg mitochondrial protein). Rates of extracellular acidification (ECAR, in mpH/min) were converted to proton production rates (PPR, in pmol H+/min) by determining the buffer capacity with sequential injections of HCl and H2SO4 (Mookerjee, S. A., Goncalves, R. L., Gerencser, A. A., Nicholls, D. G., and Brand, M. D. (2015). The contributions of respiration and glycolysis to extracellular acid production. Biochim et Biophys Acta. 1847, 171-81). 10 μg/mL alamethicin was used to permeabilize the mitochondrial inner membrane (1 μg/mg mitochondrial protein).

[5] = system: LCFA oxidation in BMDMs; test: 9,10-3H-palmitate oxidation (3H2O release) in BMDMs; format: cell-based, mouse; conditions: 200 nM rotenone or 200 nM antimycin A, IL-4-stimulated
Protocol: BMDMs at day 6 of differentiation were seeded at 3×10^5 cells/well in 12 well plates in BMDM media. The next day, cells were treated in DMEM containing 25 mM glucose supplemented with 5% FBS, 2 mM L-Glutamax, 100 units/mL, 100 μg/mL penicillin/streptomycin, 1 mM of sodium pyruvate, 1 mM carnitine, and 5% v/v conditioned media containing macrophage colony stimulating factor (M-CSF) under one of 5 conditions: control, 20 ng/mL of IL-4±3 μM or 200 μM of etomoxir, or 200 nM rotenone, or 200 nM antimycin A for 24 hr. Fatty acid oxidation was measured 24 hours later as previously described (Rognstad, R. (1991) Estimation of peroxisomal and mitochondrial fatty acid oxidation in rat hepatocytes using tritiated substrates. Biochem J 279:147-150, 1991; Cha, B. S., Ciaraldi, T. P., Park, K. S., Carter, L., Mudaliar, S. R., and Henry R R. (2005) Impaired fatty acid metabolism in type 2 diabetic skeletal muscle cells is reversed by PPARgamma agonists. Am J Physiol Endocrinol Metab. 289, E151-9) following a fluid change to DMEM with components as described above except 10 mM glucose and 0.2 μCi (final concentration of 5 μM) BSA-conjugated [9,10-3H]palmitic acid. No additional IL-4 was added at the time of this fluid change, but etomoxir, rotenone and antimycin A were added, and the plates were placed in a […] incubator at 37° C. for 3 hr. After incubation, a 100 μL aliquot of the culture medium was passed over an ion-exchange resin, and the column was washed twice with 0.75 ml of water. Free fatty acids were retained by the resin, whereas the tritium hydrolyzed from radiolabeled palmitate catabolism was released as labeled water, which passes freely through the resin, and is subsequently counted for radioactivity. All data are corrected for protein content in each well. There were 3 technical replicates for each condition, and 4 biological replicates arising from 4 separate animals.

[6] = system: phosphate (Pi) transporter; test: Phosphate transporter assay (mitochondrial swelling); format: biochemical, rat; conditions: 250 μM etomoxir, 100 μM NEM, 10 μM mersalyl
Protocol: Phosphate transport was measured by monitoring swelling of de-energized mitochondria in isotonic potassium phosphate medium based upon principles described by Coty, W. A. and Pedersen, P. L. (1975) Phosphate transport in rat liver mitochondria. Kinetics, inhibitor sensitivity, energy requirements, and labeled components. Mol Cell Biochem. 9, 109-24. As the phosphate carrier acts as electroneutral symporter with protons, the process is self-restricting due to generation of an opposing pH gradient. […] In the presence of nigericin, the proton fluxes cycle resulting in electro- and pH-neutral transport of potassium phosphate down its concentration gradient into the mitochondrial matrix, resulting in osmotic accumulation of water. Under these conditions, transport is limited by the activity of phosphate carrier, and can be recorded as mitochondrial swelling (a decrease in light scattering).
The measurements were performed in an LS-50B spectrofluorometer (Perkin-Elmer) at 540 nm. Assay medium contained 125 mM potassium phosphate, pH 7.2, 0.5 mM EGTA, and 2 μM rotenone. Mouse liver mitochondria (0.5 mg/ml) were treated with 250 μM etomoxir, 100 μM N-ethylmaleimide (NEM) (Klingenberg, M., Durand, R., and Guerin, B. (1974) Analysis of the reactivity of SH-reagents with the mitochondrial phosphate carrier. Eur J Biochem, 42, 135-150) or 10 μM mersalyl (Paradies, G. and Ruggiero, F. M. (1991) Effect of aging on the activity of the phosphate carrier and on the lipid composition in rat liver mitochondria. Arch Biochem Biophys. 284, 332-337) and the reaction was started with 5 μM nigericin. Typical traces from 3 experiments are shown. To establish the maximally swollen state of mitochondria, 80 μg/ml alamethicin was used.

[7] = alamethicin-permeabilized mitochondria
[8] = intact isolated mitochondria, etomoxir 100 μM, CAT 7.5 ng/mg, oligomycin 3 ng/mg

## CC(=O)SCCNC(=O)CCNC(=O)[C@H](O)C(C)(C)COP(=O)(O)OP(=O)(O)OC[C@H]1O[C@@H](n2cnc3c(N)ncnc32)[C@H](O)[C@@H]1OP(=O)(O)O [acetyl CoA]
[1]; 500 μM acetyl CoA
  number of cells positive for both CD206 and CD71: cannot reproduce the effect of CoA
[1]; acetyl CoA with CoA, both 500 μM
  number of cells positive for both CD206 and CD71: counteracts the effect of CoA
[2]; 500 μM acetyl CoA
  expression of Arg1, Mgl2 and Fabp4: different effects than CoA

## CC[C@H]1/C=C/C=C/C[C@@H](C)[C@H](O)[C@@](C)(O)C(=O)[C@@H](C)[C@H](O)[C@@H](C)C(=O)[C@@H](C)[C@H](O)[C@@H](C)/C=C/C(=O)O[C@@H]2[C@H](C)[C@H](CC1)O[C@]1(CC[C@H](C)[C@H](C[C@@H](C)O)O1)[C@H]2C [oligomycin]
[1]
  population of CD206+/CD71+ cells: none of the inhibitors of ATP synthesis or the electron transport chain significantly lowered
[3]
  respiration at 24 hr: strongly reduced respiration
[4]; [7]
  ATP hydrolysis: remained inhibitory
[4]; [8]
  ATP hydrolysis: inhibited ATP hydrolysis

## C=C1[C@@H]2CC[C@H]3[C@]4(C)C[C@H](O[C@@H]5O[C@H](CO)[C@@H](OS(=O)(=O)O)[C@H](OS(=O)(=O)O)[C@H]5OC(=O)CC(C)C)CC(C(=O)O)(C(=O)O)[C@H]4CC[C@]3(C2)[C@H]1O [carboxyatractyloside]
[1]
  population of CD206+/CD71+ cells: none of the inhibitors of ATP synthesis or the electron transport chain significantly lowered
[3]
  respiration at 24 hr: strongly reduced respiration
[4]; [7]
  ATP hydrolysis: no effect
[4]; [8]
  ATP hydrolysis: inhibited ATP hydrolysis

## antimycin A
[5]
  3H2O release from 9,10-3H-palmitate: suppressed LCFA oxidation to levels in line with 200 μM etomoxir
[1]
  population of CD206+/CD71+ cells: none of the inhibitors of ATP synthesis or the electron transport chain significantly lowered
[2]; IL-4, 24 hr
  IL-4-induced expression of Relma, Ym1, Mgl2: failed to reduce
[3]
  respiration at 24 hr: strongly reduced respiration

## CCN1C(=O)C=CC1=O [N-ethyl maleimide, N-ethylmaleimide]
[6]
  Pi transporter activity (rate of swelling): inhibited the rate of swelling

## COC(CNC(=O)c1ccccc1OCC(=O)O)[CH2][Hg][OH] (stereo not drawn) [mersalyl]
[6]
  Pi transporter activity (rate of swelling): inhibited the rate of swelling

## C/C=C(\C)[C@H](O)[C@H](C)/C=C(C)/C=C/C/C(C)=C/Cc1nc(OC)c(OC)c(O)c1C [piericidin A]
[1]
  population of CD206+/CD71+ cells: none of the inhibitors of ATP synthesis or the electron transport chain significantly lowered
[2]; IL-4, 24 hr
  IL-4-induced expression of Relma, Ym1, Mgl2: failed to reduce
[2]; mitochondrial inhibitors, IL-4, 24 hr
  expression of Ym1 and Arg1: increased expression
[3]
  respiration at 24 hr: strongly reduced respiration
